Results published in the supplement of paper PMC10307832.

Assays:
Assay in all cases: relative viability (nuclei count vs DMSO), 5 days (fraction); higher = more cells survive
[1] = compound: C[C@@H](N)c1ccc(C(=O)Nc2ccnc3[nH]ccc23)cc1 + CC(=O)Nc1cccc(-n2c(=O)n(C3CC3)c(=O)c3c(Nc4ccc(I)cc4F)n(C)c(=O)c(C)c32)c1 [Trametinib] (partner 0.02 µM)
Method in brief: (§1)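 Values are medians from duplicate plates. Each reflects relative viability, defined as the nuclei count of treated wells over that of vehicle wells. Lung cancer cell lines in 1536-well plates were pin-tool dosed one day after seeding with one drug alone or with a fixed anchor-drug dose plus five library-drug doses (not always all listed) in √10 steps, then fixed, stained and imaged at 4× after 5 days.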

[2] = compound: O[C@H]1CC[C@H](Nc2ncc3nc(Nc4c(F)cc(F)cc4F)n([C@H]4CCOC4)c3n2)CC1 [Tanzisertib] + O=C(c1cc(Cc2n[nH]c(=O)c3ccccc23)ccc1F)N1CCN(C(=O)C2CC2)CC1 [Olaparib] (partner 8 µM)
Method in brief: as §1

[3] = compound: O[C@H]1CC[C@H](Nc2ncc3nc(Nc4c(F)cc(F)cc4F)n([C@H]4CCOC4)c3n2)CC1 [Tanzisertib] + NC(=O)Nc1cc(-c2cccc(F)c2)sc1C(=O)N[C@H]1CCCNC1 [AZD7762] (partner 0.2 µM)
Method in brief: as §1

[4] = compound: C1CNCCC1C2=CC(=NN2)C3=CC=NC=C3 + CC(=O)Nc1cccc(-n2c(=O)n(C3CC3)c(=O)c3c(Nc4ccc(I)cc4F)n(C)c(=O)c(C)c32)c1 [Trametinib] (partner 0.02 µM)
Method in brief: as §1

Cell Line	relative viability ([1]; first compound 0.04 µM)	relative viability ([1]; first compound 0.1265 µM)	relative viability ([1]; first compound 0.4 µM)	relative viability ([1]; first compound 1.265 µM)	relative viability ([1]; first compound 4 µM)	relative viability ([2]; first compound 0.08 µM)	relative viability ([2]; first compound 0.253 µM)	relative viability ([2]; first compound 0.8 µM)	relative viability ([2]; first compound 2.53 µM)	relative viability ([2]; first compound 8 µM)	relative viability ([3]; first compound 0.08 µM)	relative viability ([3]; first compound 0.253 µM)	relative viability ([3]; first compound 0.8 µM)	relative viability ([3]; first compound 2.53 µM)	relative viability ([3]; first compound 8 µM)	relative viability ([4]; first compound 0.08 µM)	relative viability ([4]; first compound 0.8 µM)	relative viability ([4]; first compound 2.53 µM)	relative viability ([4]; first compound 8 µM)
201T	0.701	0.712	0.733	0.758	0.815	0.854	0.902	0.855	0.848	0.864	0.659	0.528	0.578	0.555	0.524	0.712	0.731	0.753	0.675
A549	–	–	–	–	–	0.297	0.397	0.344	0.35	0.0802	–	–	–	–	–	–	–	–	–
A-427	0.88	0.876	0.953	0.73	0.662	0.783	0.66	0.811	0.877	0.782	0.756	0.766	0.885	0.705	0.662	0.748	0.857	0.779	0.874
ABC-1	–	–	–	–	–	0.838	0.757	0.634	0.701	0.792	0.914	0.822	0.871	0.649	0.611	–	–	–	–
BEN	1.01	0.87	0.984	1.37	0.85	1.05	0.968	1.05	1.12	0.997	0.622	0.8	0.868	0.724	0.565	0.769	0.936	1.05	1.02
CAL-12T	0.34	0.408	0.38	0.447	0.409	0.731	0.767	0.567	0.641	0.844	0.606	0.79	0.623	0.636	0.647	0.351	0.363	0.363	0.419
COR-L23	0.414	0.591	0.604	0.262	0.389	0.339	0.353	0.347	0.417	0.353	–	–	–	–	–	0.583	0.62	0.678	0.608
COR-L 105	0.441	0.518	0.449	0.417	0.458	0.729	0.631	0.792	0.726	0.816	–	–	–	–	–	0.42	0.501	0.427	0.47
Calu-6	–	–	–	–	–	0.583	0.566	0.563	0.597	0.509	–	–	–	–	–	–	–	–	–
ChaGo-K-1	0.888	0.863	0.823	0.894	0.789	0.511	0.422	0.453	0.45	0.438	0.926	0.89	0.856	0.839	0.796	0.916	0.85	0.897	0.807
EBC-1	–	–	–	–	–	0.747	0.675	0.675	0.603	0.536	–	–	–	–	–	–	–	–	–
EKVX	0.482	0.446	0.396	0.556	0.22	0.888	0.876	0.862	0.872	0.792	0.68	0.795	0.612	0.65	0.535	0.402	–	0.366	0.445
EMC-BAC-2	0.958	1.04	1.03	1.01	0.969	0.484	0.477	0.455	0.488	0.533	1.16	1.15	1.04	0.947	1.04	–	0.946	0.994	0.991
EPLC-272H	0.299	0.283	0.358	–	0.267	0.991	0.767	0.758	1.51	0.572	0.352	0.324	0.175	0.175	0.176	0.283	0.278	0.319	0.344
H3255	0.704	0.694	0.748	0.757	0.583	0.611	0.521	0.661	0.62	0.481	0.95	0.932	1	0.791	0.554	0.532	–	0.689	0.736
HARA	0.918	1.01	0.804	0.549	0.936	0.876	0.844	0.715	1.28	0.849	0.288	0.358	0.337	0.286	0.275	0.616	0.709	0.762	1.09
HCC-15	0.456	0.365	0.422	0.384	0.362	0.779	0.742	0.791	0.713	0.727	1.23	1.25	1.22	1.13	1	0.421	0.387	0.391	0.4
HCC-44	1.08	1.11	1.18	1.16	0.952	0.99	1.08	0.965	1.03	1.11	0.987	1.05	0.997	1.01	1.15	1.09	1.06	1.04	1.05
HCC-78	0.979	0.793	0.981	1.2	0.661	0.922	0.73	0.854	0.852	0.622	0.694	0.723	0.634	0.474	0.5	0.742	–	0.821	0.757
HCC-366	0.345	0.332	0.388	0.399	0.375	–	0.319	0.36	0.353	0.308	–	0.316	0.277	0.192	0.286	0.292	0.428	0.393	0.337
HCC-827	–	0.703	0.758	0.763	0.653	0.616	0.716	0.711	0.54	0.355	0.206	0.227	0.19	0.164	0.147	0.524	0.5	0.599	0.601

Cell Line	relative viability ([1]; first compound 0.04 µM)	relative viability ([1]; first compound 0.1265 µM)	relative viability ([1]; first compound 0.4 µM)	relative viability ([1]; first compound 1.265 µM)	relative viability ([1]; first compound 4 µM)	relative viability ([2]; first compound 0.08 µM)	relative viability ([2]; first compound 0.253 µM)	relative viability ([2]; first compound 0.8 µM)	relative viability ([2]; first compound 2.53 µM)	relative viability ([2]; first compound 8 µM)	relative viability ([3]; first compound 0.08 µM)	relative viability ([3]; first compound 0.253 µM)	relative viability ([3]; first compound 0.8 µM)	relative viability ([3]; first compound 2.53 µM)	relative viability ([3]; first compound 8 µM)	relative viability ([4]; first compound 0.08 µM)	relative viability ([4]; first compound 0.8 µM)	relative viability ([4]; first compound 2.53 µM)	relative viability ([4]; first compound 8 µM)
HOP-62	0.425	0.356	0.35	0.377	0.365	0.268	0.426	0.587	0.643	0.556	0.483	0.503	0.708	0.625	0.47	0.344	0.415	0.425	0.357
IA-LM	–	–	–	–	–	0.738	0.765	0.754	0.859	0.789	–	–	–	–	–	–	–	–	–
LC-2-ad	0.957	0.911	0.883	0.926	0.727	0.68	0.743	0.706	0.714	0.794	0.839	0.898	0.867	0.833	0.676	0.887	1.02	0.93	0.932
LCLC-97TM1	0.211	0.193	0.227	0.259	0.18	0.487	0.51	0.416	0.301	0.47	0.302	0.334	0.207	0.264	0.151	0.191	0.204	0.172	0.193
LCLC-103H	0.715	0.618	0.647	0.616	0.634	0.76	0.813	0.816	0.8	0.81	0.877	0.735	0.769	0.8	0.754	0.689	0.724	0.67	0.674
LK-2	1.03	0.733	0.694	0.939	0.933	0.772	0.835	0.712	0.669	0.769	0.41	0.455	0.421	0.32	0.346	0.605	0.761	0.591	0.88
LOU-NH91	0.746	0.796	0.739	0.644	0.539	0.948	0.896	0.989	0.89	0.727	0.781	0.782	0.806	0.746	0.676	0.778	0.769	0.841	0.766
LU99A	–	0.586	0.52	0.477	0.483	0.268	0.253	0.246	0.276	0.255	0.299	0.42	0.431	0.322	0.407	0.48	0.616	0.561	0.543
LXF-289	0.661	0.676	0.708	0.797	0.588	1.13	1.02	1.12	1.02	1.13	1.21	1.09	1.19	1.1	1.12	0.658	0.768	0.653	0.706
NCI-H520	0.915	0.73	0.697	0.891	0.719	0.395	0.331	0.39	0.328	0.433	–	–	–	–	–	0.609	0.776	0.666	0.725
NCI-H661	0.48	0.595	0.571	0.475	0.494	0.807	0.756	0.74	0.786	0.724	–	–	–	–	–	0.568	0.561	0.586	0.596
NCI-H1299	–	–	–	–	–	0.997	0.972	0.96	1.1	1.03	–	–	–	–	–	–	–	–	–
NCI-H1650	0.579	0.786	0.648	0.554	0.609	0.807	0.778	0.882	0.671	0.662	–	–	–	–	–	0.506	0.558	0.569	0.578
NCI-H1703	–	–	–	–	–	0.457	0.453	0.388	0.35	0.392	0.146	0.13	0.118	0.135	0.113	–	–	–	–
NCI-H2009	0.219	0.268	0.236	0.21	0.214	0.634	0.734	0.743	0.73	0.752	–	–	–	–	–	0.248	0.257	0.376	0.298
NCI-H2023	0.607	0.619	0.657	–	0.586	0.523	0.47	0.497	0.44	0.452	–	–	–	–	–	0.418	0.627	0.645	0.494
NCI-H2228	0.556	0.428	0.886	0.395	0.475	0.579	0.506	0.556	0.788	0.496	–	–	–	–	–	0.56	0.37	0.696	0.7
SK-LU-1	0.422	0.506	0.625	0.299	0.473	0.502	0.538	0.453	0.491	0.373	–	–	–	–	–	0.449	0.445	0.541	0.528
SK-MES-1	0.607	0.523	0.458	0.488	0.401	0.699	0.709	0.742	0.653	0.624	–	–	–	–	–	0.553	0.549	0.542	0.578
SW 1573	0.767	0.615	0.598	0.56	0.529	0.453	0.406	0.475	0.455	0.443	–	–	–	–	–	–	0.6	0.556	0.622
